From US20240423964A1, “METHODS AND COMPOSITIONS FOR IMPROVING NEUROMUSCULAR JUNCTION MORPHOLOGY AND FUNCTION” (The Board of Trustees of the Leland Stanford Junior …, priority 2021, published 2024)
“Also recorded” adds a separate entry of the source.

Key:
aged mice [1] = assay: Aged mice treated systemically with SW033291 for one month: muscle PGE2 levels, muscle mass and force; format: in vivo, mouse; conditions: systemic treatment for one month
Description: The prostaglandin E2 catabolizing enzyme, 15-hydroxyprostaglandin dehydrogenase (15-PGDH), is a pivotal regulator of muscle aging and that its inhibition leads to a marked increase in muscle mass and strength in aged mice^1. 15-PGDH is a nicotinamide adenine dinucleotide (NAD+) dependent enzyme that increases with aging in muscle and catabolizes PGE2. FIGS. 1A-1B show increased 15-PGDH activity along with PGE2 levels, and these are reduced in aged mouse muscle. […] Strikingly, overexpression of 15-PGDH in young mouse muscles leads to loss of muscle mass and strength after just one month^1. […]
Plantar flexion peak isometric torque (N·mm) was measured in mice as described previously (2, 42, 43). […] Data were analyzed using Aurora Scientific Dynamic Muscle Analysis Software Suite. Force was measured longitudinally in mice undergoing unilateral sciatic nerve crush injury on days 3, 7, and 14 post-injury. Peak tetanic force generated by contralateral uninjured legs was measured in all experimental mice at all time points.
Prostaglandins, PGE2, PGD2, and PGF2a, and PGE2 metabolites, 15-keto PGE2 and 13,14-dihydro-15-keto PGE2 (PGEM), were measured as described previously (2). Briefly, tissues were snap frozen in liquid nitrogen upon dissection and were kept for no more than 2 weeks in −80° C. freezer before processing for prostaglandin quantification using LC-MS/MS. […]

aged mice [2] = assay: NMJ morphology in EDL muscles of aged mice (whole-mount staining, confocal microscopy); format: in vivo, mouse
Description: (§1) Mice were treated for 1 month once a day intraperitoneally with 5 mg/kg of SW033291 (SW) or vehicle (10% ethanol, 5% Cremophor EL, and 85% D5W (5% (wt/v) dextrose in water, Tables 3 and 4)) as previously described (2). Vehicle and SW treatments were performed in seven independent experiments for aging studies that included young and aged vehicle- and SW-treated groups. Mice were randomized based on their body weight into vehicle-treated control and SW-treated experimental groups prior to the start of injections. A full-body necropsy was performed on all mice at the experimental endpoint and mice that developed tumors were excluded from the study.
Extensor digitorum longus (EDL) and soleus muscles were dissected and fixed in 4% PFA in PBS for 30 minutes at room temperature. Muscles were washed in PBS extensively and stored in PBS with 0.01% sodium azide (Sigma. S2002) at 4 C until processed. For whole-mount staining, EDLs were separated using the distal tendon into 4 pieces to make thinner sheets of muscles for staining. The proximal and distal tendons of either soleus or EDL pieces were removed to allow for teasing thin bundles of muscle fibers using fine forceps under a stereomicroscope. Care was given in handling tissues to avoid touching the end plate band with forceps tips. Next, myofiber bundles were incubated in PBS-T (0.3% Triton X-100 in PBS) for 1 hour and were blocked in blocking solution (5% goat serum and 0.3% Triton X-100 in PBS) supplemented with 1:50 dilution of goat anti-mouse IgG (Jackson ImmunoResearch, 115-007-003) and IgM (Jackson ImmunoResearch, 115-007-020) for 1 hour at room temperature. Tissues were then incubated with a primary antibody mix against neurofilament and synaptic vesicle (2H3 and SV, DSHB) at 5 μg/ml for a minimum of 24 hours at 4 C with gentle shaking. Tissues were then rinsed with PBS-T and incubated with a secondary antibody mix (goat anti-mouse IgG1-Cy™3, Bungarotoxin-AF™647, and Hoechst 33342) diluted in blocking solution overnight at 4° C. with gentle shaking. Tissues were washed extensively with PBS and mounted in Fluoromount-G™ mounting medium (Southern Biotech, 0100-01) and left overnight to equilibrate prior to confocal microscopy.
(§2) Confocal images were acquired on a Marianas spinning disk confocal (SDC) microscopy with Intelligent Imaging Innovations software using a 20×/NA 0.75 or an oil immersion 40×/NA 0.9 objective to capture multiple focal planes at a step size of 1 μm. Images acquired using the 20× objective were analyzed to score denervation, axonal swelling, and fragmentation of AChRs. Images acquired with the oil immersion 40× objective were analyzed to quantity NMJ-associated endolysosomal vesicles stained with α-bungarotoxin-AF647. Maximum intensity projection images were created from confocal slices using NIH ImageJ software. Data acquisition and NMJ scoring were performed by two researchers blinded to treatment conditions.

[3] = test system: mice undergoing unilateral sciatic nerve crush; assay: Sciatic nerve crush: NMJ denervation in ipsilateral EDL muscles (immunofluorescence); format: in vivo, mouse; conditions: 14 dpi, daily intraperitoneal treatment, compared to vehicle-treated controls
Description: (§3) Nerve injury was induced as described below. Mice were treated with SW or vehicle as control intraperitoneally once daily for 14 days post-injury as described above.
The sciatic nerve crush surgery was adopted from the protocol described previously by Bauder and Ferguson (41). The crush surgery was performed as described above with the following modifications. After locating the sciatic nerve, the nerve was mobilized gently with sharp sticks for easy access with hemostatic forceps (Fine Science Tools, 13020-12). Next, the nerve was gently placed on the bottom jaw of the forceps and was crushed for 15 seconds at 3 clicks of the forceps (first location of the locking handle). The incision was closed using 7 mm autoclaved reflex clips (World Precision Instruments, 500344; Applier: 500345). Mice were monitored for recovery from anesthesia and then returned to their home cages. […]
as §2, with “Maximum intensity projection images were created from confocal slices using NIH ImageJ software. Data acquisition and NMJ scoring were performed by two researchers blinded to treatment conditions.” left out

[4] = test system: mice undergoing unilateral sciatic nerve crush; assay: Sciatic nerve crush: plantar flexion tetanic force by nerve stimulation; format: in vivo, mouse
Description: as §3
(§4) The sciatic nerve crush surgery was adopted from the protocol described previously by Bauder and Ferguson (41). The crush surgery was performed as described above with the following modifications. After locating the sciatic nerve, the nerve was mobilized gently with sharp sticks for easy access with hemostatic forceps (Fine Science Tools, 13020-12). Next, the nerve was gently placed on the bottom jaw of the forceps and was crushed for 15 seconds at 3 clicks of the forceps (first location of the locking handle). The incision was closed using 7 mm autoclaved reflex clips (World Precision Instruments, 500344; Applier: 500345). Mice were monitored for recovery from anesthesia and then returned to their home cages.
Plantar flexion peak isometric torque (N·mm) was measured in mice as described previously (2, 42, 43). Briefly, mice were anesthetized with 3% isoflurane mixed with oxygen and legs were shaved from ankle to hip to allow for reproducible access to the tibial nerve. The foot was taped to a footplate attached to a servomotor (Aurora Scientific, 300C-LR) and the knee joint was secured to a fixed steel post. Contractions were elicited by percutaneous electrical stimulation of the tibial nerve by inserting two Pt—Ir electrode needles (Aurora Scientific) posterior to the knee joint. The peak isometric torque was achieved by injecting 0.4 mA current to the tibial nerve at a frequency of 150 Hz and 0.1 ms square wave pulse. Three tetanic measurements were performed on each muscle, with 1 minute recovery between each measurement, and chose the highest value. Force measurement acquisition was blinded and the researcher performing the force measurements was unaware of treatment conditions. Data were analyzed using Aurora Scientific Dynamic Muscle Analysis Software Suite. Force was measured longitudinally in mice undergoing unilateral sciatic nerve crush injury on days 3, 7, and 14 post-injury. Peak tetanic force generated by contralateral uninjured legs was measured in all experimental mice at all time points.

[5] = test system: mice undergoing unilateral sciatic nerve crush; assay: Sciatic nerve crush: body weight and gastrocnemius/soleus muscle weight; format: in vivo, mouse
Description: as §3, §4

aged mice [6] = assay: Motor neuron apoptosis: cleaved caspase-3 in ChAT+ neurons of the lumbar spinal cord of aged mice; format: in vivo, mouse; conditions: ChAT+ neurons in ventral horn of lumbar spinal cord
Description: as §1
Spinal cords were harvested as previously described using hydraulic extrusion of the entire intact spinal cord. Briefly, mice were euthanized with carbon dioxide and decapitated using scissors caudally to the brain stem. The spinal columns were severed just caudal to the sacral spinal cord. A blunt 25-gauge syringe containing ice-cold PBS was inserted into the caudal end of the spinal cord to hydraulicly extrude the entire cord in a petri0dish with ice-cold PBS. The lumbar region was identified under a stereomicroscope, dissected with a sharp blade, and fixed overnight at 4 C in 4% PFA in phosphate buffer. Fixed lumbar spinal cords were embedded in O.C.T. and were frozen in liquid-nitrogen-cooled isopentane. […]

aged mice [7] = assay: Electron microscopy of motor neuron-associated mitochondria in EDL axons of aged mice; format: in vivo, mouse; conditions: one month of treatment, listed as SW
Description: as §1
Extensor digitorum longus (EDL) muscles were dissected and pinned by proximal and distal tendons to the bottom of a petri-dish coated with silicone rubber. Tissues fixed in 2% Glutaraldehyde (Electron Microscopy Sciences, 16000) and 4% paraformaldehyde (Electron Microscopy Sciences, 15700) in 0.1M sodium cacodylate (Electron Microscopy Sciences, 12300) pH 7.4 for 24 hours. Tissues were then transferred from petri-dishes to microcentrifuge tubes with 1% Osmium tetroxide (Electron Microscopy Sciences, 19100) and were kept at room temperature for 1 hour with gentle rotation. […] Images were quantified by an individual blinded to experimental conditions in ImageJ.

15-PGDH = 15-PGDH (Mus musculus, UniProt Q8VCC1); conditions: in vivo; cited from earlier work
15-PGDH, sequence (Q8VCC1 whole entry): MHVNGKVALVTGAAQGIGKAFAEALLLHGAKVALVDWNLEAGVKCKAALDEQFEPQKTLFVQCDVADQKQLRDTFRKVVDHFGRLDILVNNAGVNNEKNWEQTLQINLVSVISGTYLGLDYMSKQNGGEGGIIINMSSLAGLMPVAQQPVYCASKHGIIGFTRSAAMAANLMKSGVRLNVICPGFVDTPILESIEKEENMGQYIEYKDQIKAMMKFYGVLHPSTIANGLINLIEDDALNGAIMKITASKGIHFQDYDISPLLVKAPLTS

[8] = aged mice, one month of intraperitoneal administration
[9] = geriatric mice (>26 months), one month once daily i.p., EDL

With `CCCC[S+]([O-])c1sc2nc(-c3cccs3)cc(-c3ccccc3)c2c1N` (centres unmarked) [SW033291, 2-(butylsulfinyl)-4-phenyl-6-(thiophen-2-yl)thieno[2,3-b]pyridin-3-amine] as the compound, how does the “increase in muscle mass and force” value (aged mice [1]) read?
Its value is 15-20%.

What about the “muscle PGE2 levels” value (aged mice [1]) of the same compound?
The value was “to the physiological levels measured in young mice”.

And the “morphology of the AChRs” value (aged mice [2]; [8])?
Its value is “improves, enhances, and/or rejuvenates the intact morphology of the AChRs”.

What about the “number of AChR rich endo/lysosomal vesicles” value (aged mice [2]; [8]) of the same compound?
Its value is “striking reduction”.

What about the “number of AChR rich endo/lysosomal vesicles” value (aged mice [2]; aged mice, one month of intraperitoneal administration, listed as SW) of the same compound?
The value was “reduces”.

What about the “aged NMJ morphology” value (aged mice [2]; [9]) of the same compound?
The value was “improved, enhanced, and/or rejuvenated to branched and pretzel-like structures found in young EDLs”.

And the “incidence of AChR fragmentation” value (aged mice [2]; [9])?
Its value is “significantly reduced”.

What about the “incidence of motor neuron axonal swelling” value (aged mice [2]; [9]) of the same compound?
The value was “significantly reduced”.

And the “rate of denervation in aged EDLs” value (aged mice [2]; geriatric mice (>26 months), one month once daily i.p., mean±S.E.M.)?
The value was 12.4±2.9.

What about the “denervation rates in EDLs ipsilateral to the nerve crush” value [3] of the same compound?
The value was “significantly reduced”.

And the “tetanic plantar flexor force in the injured leg, difference between vehicle and SW” value ([4]; 3 dpi until 7 dpi)?
The value was “no differences between the experimental groups”.

And the “plantar flexion force of the contralateral (uninjured) legs, difference between vehicle and SW” value ([4]; contralateral control legs, listed as SW)?
The value was “no significant differences”.

What about the “increase in specific force (force normalized to gastrocnemius and soleus weight)” value ([4]; mean±S.D., compared to vehicle-treated control mice, 14 days post nerve crush) of the same compound?
Its value is 52±10%.

What about the “increase in plantar flexion force generation in injured legs” value ([4]; mean±S.D., daily intraperitoneal treatment after nerve crush) of the same compound?
Its value is 69±8%.

And the “muscle mass in injured legs” value ([5]; 14 dpi, gastrocnemius and soleus)?
The value was “significant increase”.

And the “muscle weight of the contralateral control legs, difference between vehicle and SW treatment” value ([5]; contralateral control legs, 14 days post nerve crush)?
The value was “No differences”.

And the “animals body weight, difference between vehicle and SW treatment” value ([5]; nerve crush model)?
Its value is “No differences”.

And the “activated caspase-3 in aged lumbar motor neurons (apoptosis)” value (aged mice [6])?
Its value is “lower levels”.

What about the “mitochondrial morphology in motor neurons (distal axons / heavily myelinated axons of EDL)” value (aged mice [7]) of the same compound?
Its value is “improvement, enhancement, and/or rejuvenation of mitochondrial morphology; also recorded: improved, enhanced, and/or rejuvenated to compact circular mitochondria morphology resembling that seen in young”.

What about the “catabolic regulators of muscle atrophy such as atrogenes, ubiquitin ligases MuRF1 (Trim63) and Fbxo32, and TGF-beta signaling” value (15-PGDH) of the same compound?
The value was “reduction”.
